Experimental data: BigSolDB 2.1

O=C1c2ccccc2C(=O)N1O
solubility (mole fraction)
Details	278.15 K	283.15 K	288.15 K	293.15 K	298.15 K	303.15 K	308.15 K	313.15 K	318.15 K	323.15 K
in 1,4-dioxane	–	–	0.0181	0.0204	0.0231	0.0255	0.0286	0.0319	0.0354	0.0393
in 2-ethoxyethanol	0.016	0.0182	0.0207	0.0233	0.026	0.0294	0.0327	0.0364	0.0404	0.0447
in 2-methoxyethanol	0.0254	0.028	0.0311	0.0346	0.0381	0.0421	0.0466	0.051	0.056	0.062
in acetone	0.00744	0.00861	0.00981	0.0111	0.0126	0.0144	0.0161	0.0186	0.0202	0.0222
in acetonitrile	0.00232	0.00268	0.00312	0.0036	0.00414	0.00476	0.00543	0.00618	0.00701	0.0079
in ethanol	0.00307	0.00366	0.00442	0.00526	0.00614	0.00729	0.00855	0.01	0.0117	0.0138
in ethyl acetate	0.00214	0.00252	0.00301	0.00353	0.00399	0.00465	0.00541	0.0062	0.00705	0.00807
in methanol	0.00354	0.00412	0.00484	0.00566	0.00657	0.0078	0.00903	0.0105	0.0123	0.0143
in methyl acetate	0.00303	0.00342	0.00394	0.00462	0.00528	0.00618	0.00696	0.00794	0.00908	0.0104
in n-propanol	0.00214	0.00259	0.00321	0.00388	0.00467	0.00568	0.00688	0.00834	0.00992	0.0119
in n-propyl acetate	0.0017	0.00202	0.00235	0.00281	0.00329	0.00381	0.00442	0.00512	0.00594	0.00679
